Source: PubChem BioAssay AID1259411 (Chemical Carcinogenesis Research Information System (CCRIS), 2018)
Active and inactive are the calls of the source. No rule for the calls is given here.

Tested on: rodent carcinogenicity bioassays, tumor incidence
Test: CCRIS carcinogenicity studies
Outline: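 Archive of carcinogenicity, mutagenicity, tumor promotion and tumor inhibition results drawn from journals, NCI reports and other sources, expert-reviewed; covers 1985-2011 and is no longer updated.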

With `CC(=O)OC/C=C(\C)CCC=C(C)C` the carcinogen call (Species: MOUSE, Strain/Sex: B6C3F1/MALE, Route: GAVAGE, Dose: 0, 500 MG/KG OF FOOD GRADE (29% CITRONELLYL ACETATE) IN CORN OIL 5D/WK FOR 102 WK (STUDY DURATION: 104 WK)) was “inactive; negative”, the carcinogen call (Species: RAT, Strain/Sex: F344/FEMALE, Route: GAVAGE, Dose: 0, 1000, 2000 MG/KG OF FOOD GRADE (29% CITRONELLYL ACETATE) IN CORN OIL 5D/WK FOR 103 WK (STUDY DURATION: 104 WK), Dose: 0, 1000, 2000 MG/KG OF FOOD GRADE (29% CITRONELLYL ACETATE) IN CORN OIL 5D/WK FOR 103 WK (STUDY DURATION: 104 WK)) was “inactive; negative” and the carcinogen call (Species: RAT, Strain/Sex: F344/MALE, Route: GAVAGE, Dose: 0, 1000 MG/KG OF FOOD GRADE (29% CITRONELLYL ACETATE) IN CORN OIL 5D/WK FOR 103 WK (STUDY DURATION: 104 WK)) was “inactive; negative”.

`Clc1ccc(Cl)cc1` was tested, and the carcinogen call (Species: MOUSE, Strain/Sex: B6C3F1/FEMALE, Route: GAVAGE, Dose: 0, 300, 600 MG/KG IN CORN OIL 5 D/WK FOR 103 WK, Dose: 0, 300, 600 MG/KG IN CORN OIL 5 D/WK FOR 103 WK, Tumor Site: Type of Lesion: LIVER: HEPATOCELLULAR ADENOMA, HEPATOCELLULAR CARCINOMA) was “active; positive”, the carcinogen call (Species: MOUSE, Strain/Sex: B6C3F1/MALE, Route: GAVAGE, Dose: 0, 300, 600 MG/KG IN CORN OIL 5 D/WK FOR 103 WK, Dose: 0, 300, 600 MG/KG IN CORN OIL 5 D/WK FOR 103 WK, Tumor Site: Type of Lesion: LIVER: HEPATOCELLULAR ADENOMA, HEPATOCELLULAR CARCINOMA) was “active; positive” and the carcinogen call (Species: MOUSE, Strain/Sex: CRJ:BDF1/FEMALE, Route: INHALATION, Dose: 0, 20, 75, 300 PPM 6 HR/D, 5 D/WK FOR 2 YRS (STUDY DURATION: 2 YRS), Dose: 0, 20, 75, 300 PPM 6 HR/D, 5 D/WK FOR 2 YRS (STUDY DURATION: 2 YRS), Tumor Site: Type of Lesion: LIVER: HEPATOCELLULAR ADENOMA, LIVER: HEPATOCELLULAR CARCINOMA, LIVER: HEPATOBLASTOMA, Tumor Site: Type of Lesion: LIVER: HEPATOCELLULAR ADENOMA, LIVER: HEPATOCELLULAR CARCINOMA, LIVER: HEPATOBLASTOMA) was “active; positive”. The carcinogen call (Species: MOUSE, Strain/Sex: CRJ:BDF1/MALE, Route: INHALATION, Dose: 0, 20, 75, 300 PPM 6 HR/D, 5 D/WK FOR 2 YRS (STUDY DURATION: 2 YRS), Dose: 0, 20, 75, 300 PPM 6 HR/D, 5 D/WK FOR 2 YRS (STUDY DURATION: 2 YRS), Tumor Site: Type of Lesion: LIVER: HEPATOCELLULAR CARCINOMA, LIVER: HEPATOBLASTOMA, HISTIOCYTIC SARCOMA, Tumor Site: Type of Lesion: LIVER: HEPATOCELLULAR CARCINOMA, LIVER: HEPATOBLASTOMA, HISTIOCYTIC SARCOMA) was “active; positive”, the carcinogen call (Species: RAT, Strain/Sex: F344/FEMALE, Route: GAVAGE, Dose: 0, 300, 600 MG/KG IN CORN OIL 5 D/WK FOR 103 WK, Dose: 0, 300, 600 MG/KG IN CORN OIL 5 D/WK FOR 103 WK) was “inactive; negative” and the carcinogen call (Species: RAT, Strain/Sex: F344/MALE, FEMALE, Route: INHALATION, Dose: 0, 20, 75, 300 PPM 6 HR/D, 5 D/WK FOR 2 YRS (STUDY DURATION: 2 YRS), Dose: 0, 20, 75, 300 PPM 6 HR/D, 5 D/WK FOR 2 YRS (STUDY DURATION: 2 YRS)) was “inactive; negative”. The carcinogen call (Species: RAT, Strain/Sex: F344/MALE, Route: GAVAGE, Dose: 0, 150, 300 MG/KG IN CORN OIL 5 D/WK FOR 103 WK, Dose: 0, 150, 300 MG/KG IN CORN OIL 5 D/WK FOR 103 WK, Tumor Site: Type of Lesion: KIDNEY: TUBULAR CELL ADENOCARCINOMA, TUBULAR CELL ADENOMA OR ADENOCARCINOMA) was “active; positive”.

For `C#C[C@]1(O)CC[C@H]2[C@@H]3CCc4cc(OC)ccc4[C@H]3CC[C@@]21C`, the carcinogen call (Species: MOUSE, Route: ORAL, Tumor Site: Type of Lesion: MAMMARY GLAND, PITUITARY GLAND) was “active; positive” and the carcinogen call (Species: RAT, Route: ORAL, Tumor Site: Type of Lesion: MAMMARY GLAND) was “active; positive”.

For `O=C1Nc2ccc(Cl)cc2C(c2ccccc2)=NC1O` (stereo unspecified), the carcinogen call (Species: MOUSE, Strain/Sex: B6C3F1/FEMALE, Route: ORAL, Dose: 0, 125, 2500, 5000 PPM IN FEED FOR 104-105 WK (STUDY DURATION: 105 WK), Dose: 0, 125, 2500, 5000 PPM IN FEED FOR 104-105 WK (STUDY DURATION: 105 WK), Tumor Site: Type of Lesion: LIVER: HEPATOBLASTOMA, HEPATOCELLULAR ADENOMA, HEPATOCELLULAR CARCINOMA, THYROID: FOLLICULAR CELL ADENOMA) was “active; positive”, the carcinogen call (Species: MOUSE, Strain/Sex: B6C3F1/MALE, Route: ORAL, Dose: 0, 125, 2500, 5000 PPM IN FEED FOR 104-105 WK (STUDY DURATION: 105 WK), Dose: 0, 125, 2500, 5000 PPM IN FEED FOR 104-105 WK (STUDY DURATION: 105 WK), Tumor Site: Type of Lesion: LIVER: HEPATOBLASTOMA, HEPATOCELLULAR ADENOMA, HEPATOCELLULAR CARCINOMA) was “active; positive” and the carcinogen call (Species: MOUSE, Strain/Sex: SWISS-WEBSTER/FEMALE, Route: ORAL, Dose: 0, 2500, 5000 PPM IN FEED FOR 57 WK (STUDY DURATION: 57 WK), Dose: 0, 2500, 5000 PPM IN FEED FOR 57 WK (STUDY DURATION: 57 WK), Tumor Site: Type of Lesion: LIVER: HEPATOCELLULAR ADENOMA, HEPATOCELLULAR CARCINOMA) was “active; positive”. For the same molecule, the carcinogen call (Species: MOUSE, Strain/Sex: SWISS-WEBSTER/MALE, Route: ORAL, Dose: 0, 2500, 5000 PPM IN FEED FOR 57 WK (STUDY DURATION: 57 WK), Dose: 0, 2500, 5000 PPM IN FEED FOR 57 WK (STUDY DURATION: 57 WK), Tumor Site: Type of Lesion: LIVER: HEPATOCELLULAR ADENOMA, HEPATOCELLULAR CARCINOMA) was “active; positive”, the carcinogen call (Species: MOUSE, Strain/Sex: SWISS/MALE,FEMALE, Route: ORAL, Dose: 0.05, 0.15% IN DIET FOR 9 MO, Tumor Site: Type of Lesion: LIVER: HEPATOCELLULAR ADENOMA) was “active; positive” and the carcinogen call (Species: RAT, Strain/Sex: F344/FEMALE, Route: ORAL, Dose: 0, 625, 2500, 5000 PPM FOR 105 WK (STUDY DURATION: 105 WK), Dose: 0, 625, 2500, 5000 PPM FOR 105 WK (STUDY DURATION: 105 WK)) was “inactive; negative”. The carcinogen call (Species: RAT, Strain/Sex: F344/FEMALE, Route: ORAL, Dose: 0, 625, 2500, 5000 PPM IN DIET FOR 105 WK (STUDY DURATION: 105 WK), Dose: 0, 625, 2500, 5000 PPM IN DIET FOR 105 WK (STUDY DURATION: 105 WK)) was “inactive; negative”, the carcinogen call (Species: RAT, Strain/Sex: F344/FEMALE, Route: ORAL, Dose: 0, 10,000 PPM FOR 26 WK (STUDY DURATION: 105 WK)) was “inactive; negative” and the carcinogen call (Species: RAT, Strain/Sex: F344/FEMALE, Route: ORAL, Dose: 0, 10000 PPM IN DIET FOR 26 WK (STUDY DURATION: 105 WK)) was “inactive; negative”. The carcinogen call (Species: RAT, Strain/Sex: F344/MALE, Route: ORAL, Dose: 0, 625, 2500, 5000 PPM IN DIET FOR 105 WK (STUDY DURATION: 105 WK), Dose: 0, 625, 2500, 5000 PPM IN DIET FOR 105 WK (STUDY DURATION: 105 WK), Tumor Site: Type of Lesion: KIDNEY: RENAL TUBULE ADENOMA) was “equivocal”, the carcinogen call (Species: RAT, Strain/Sex: F344/MALE, Route: ORAL, Dose: 0, 10000, PPM IN DIET FOR 26 WK (STUDY DURATION: 105 WK), Dose: 0, 10000, PPM IN DIET FOR 26 WK (STUDY DURATION: 105 WK), Tumor Site: Type of Lesion: KIDNEY: RENAL TUBULE ADENOMA) was “equivocal” and the carcinogen call (Species: RAT, Strain/Sex: F344/MALE, Route: ORAL, Dose: 0, 10,000 PPM FOR 26 WK (STUDY DURATION: 105 WK), Tumor Site: Type of Lesion: KIDNEY: RENAL TUBULE ADENOMA) was “active; positive”.

`CN(N=O)C1CCCCC1` was tested, and the carcinogen call (Species: HAMSTER, Strain/Sex: SYRIAN/FEMALE, Route: GAVAGE, Dose: 0, 2.5 MG/KG 1/WK FOR 50 WK (TOTAL DOSE: 0; 0.9 MMOL) (STUDY DURATION: LIFETIME), Dose: 0, 2.5 MG/KG 1/WK FOR 50 WK (TOTAL DOSE: 0; 0.9 MMOL) (STUDY DURATION: LIFETIME)) was “inactive; negative” and the carcinogen call (Species: HAMSTER, Strain/Sex: SYRIAN/MALE, Route: GAVAGE, Dose: 0, 2.5 MG/KG 1/WK FOR 50 WK (TOTAL DOSE: 0; 0.9 MMOL) (STUDY DURATION: LIFETIME), Dose: 0, 2.5 MG/KG 1/WK FOR 50 WK (TOTAL DOSE: 0; 0.9 MMOL) (STUDY DURATION: LIFETIME), Tumor Site: Type of Lesion: LUNG: ALVEOLAR/BRONCHIAL ADENOMA, ADENOSQUAMOUS CARCINOMA) was “active; positive”.
